Data from patent US20220127247A1, “N-(PYRIDIN-2-YL)PYRIDINE-SULFONAMIDE DERIVATIVES AND THEIR USE IN THE TREATMENT OF DISEASE” (NOVARTIS AG, priority 2019, published 2022).

Key:
delF508-CFTR [1] = target: T1, delF508-CFTR (Homo sapiens, UniProt P13569, DEL508-508); experiment: Measurement of delF508-CFTR-HRP surface expression in CFBE41o- cells; type: cell-based; conditions: for EC50: HRP-tagged delF508-CFTR in CFBE41o- cells, 24 h with compound, luminescence, 10-point curve, top 10 μM; for Emax: efficacy relative to reference compound 3-(6-(1-(2,2-difluorobenzo[d][1,3]dioxol-5-yl)cyclopropane-1-carboxamido)-3-methylpyridin-2-yl)benzoic acid, CFBE41o- cells, 24 h, read-out: DelF508-CFTR-HRP Amax %
T1 construct: expressed in transfected cells
T1 sequence (P13569 with tags, fused parts or gaps DEL508-508): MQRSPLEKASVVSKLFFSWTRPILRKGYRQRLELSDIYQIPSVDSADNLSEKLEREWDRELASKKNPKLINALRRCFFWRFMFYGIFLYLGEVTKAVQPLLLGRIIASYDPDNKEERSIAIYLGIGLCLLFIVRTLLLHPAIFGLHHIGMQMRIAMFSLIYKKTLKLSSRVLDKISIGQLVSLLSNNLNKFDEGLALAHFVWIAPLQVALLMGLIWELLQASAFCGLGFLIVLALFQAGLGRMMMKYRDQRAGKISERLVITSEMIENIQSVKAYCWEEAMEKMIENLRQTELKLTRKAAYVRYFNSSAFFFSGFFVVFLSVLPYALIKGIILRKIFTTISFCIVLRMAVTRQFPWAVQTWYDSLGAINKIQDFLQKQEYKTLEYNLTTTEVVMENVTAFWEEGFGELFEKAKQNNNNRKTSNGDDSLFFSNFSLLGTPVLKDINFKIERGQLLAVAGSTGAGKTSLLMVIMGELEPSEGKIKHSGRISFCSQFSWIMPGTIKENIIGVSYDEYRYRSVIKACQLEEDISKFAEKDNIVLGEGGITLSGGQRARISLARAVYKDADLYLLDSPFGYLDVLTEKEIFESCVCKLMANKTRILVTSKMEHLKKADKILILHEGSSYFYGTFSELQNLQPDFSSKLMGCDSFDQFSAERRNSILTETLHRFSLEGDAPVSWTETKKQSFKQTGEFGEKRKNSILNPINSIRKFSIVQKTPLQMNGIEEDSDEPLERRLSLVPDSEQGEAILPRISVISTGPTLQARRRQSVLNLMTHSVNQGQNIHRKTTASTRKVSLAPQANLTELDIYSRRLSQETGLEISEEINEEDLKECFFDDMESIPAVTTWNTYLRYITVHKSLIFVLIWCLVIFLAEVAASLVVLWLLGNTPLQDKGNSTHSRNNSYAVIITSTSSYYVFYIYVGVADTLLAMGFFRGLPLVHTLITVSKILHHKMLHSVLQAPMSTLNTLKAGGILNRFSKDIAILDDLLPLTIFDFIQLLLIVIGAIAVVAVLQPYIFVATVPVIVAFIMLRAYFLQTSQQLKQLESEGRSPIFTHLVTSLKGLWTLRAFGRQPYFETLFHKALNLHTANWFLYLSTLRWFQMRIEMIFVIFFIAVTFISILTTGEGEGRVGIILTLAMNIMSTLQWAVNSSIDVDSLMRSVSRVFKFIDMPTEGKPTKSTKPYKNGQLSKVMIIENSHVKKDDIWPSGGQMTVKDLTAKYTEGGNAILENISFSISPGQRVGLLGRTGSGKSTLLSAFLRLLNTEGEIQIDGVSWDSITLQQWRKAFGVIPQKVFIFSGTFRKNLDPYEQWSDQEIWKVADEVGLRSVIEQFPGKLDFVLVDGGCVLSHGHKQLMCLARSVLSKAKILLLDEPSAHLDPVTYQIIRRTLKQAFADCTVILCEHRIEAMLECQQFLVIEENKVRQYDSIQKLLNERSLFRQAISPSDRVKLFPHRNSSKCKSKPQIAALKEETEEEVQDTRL
Outline: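 CFBE41o- cells stably expressing delF508-CFTR with HRP in the fourth extracellular loop, induced with 500 ng/mL doxycycline for 48 h, then treated with compound (top 10 μM, 10-point 3-fold) for 24 h at 37° C. Surface HRP detected by luminescence with cell-impermeant substrate; EC50 from logistic fit of triplicates, normalized to lowest concentration.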

delF508-CFTR [2] = target: T1, delF508-CFTR; experiment: delF508-CFTR functional activity in primary human bronchial epithelial cells (HBECs), Multi-Transepithelial Clamp Circuit (MTECC-24) assay; type: cell-based; conditions: for EC50: primary human delF508-CFTR bronchial epithelial cells, 24 h with compound, equivalent short circuit current (Ieq), forskolin plus potentiator, mean of at least two replicates, read-out: MTECC24-CFHBEC EC50; for MTECC24-CFHBEC Amax %: test compound added 24 h before assay, with potentiator (S)-3-amino-6-methoxy-N-(3,3,3-trifluoro-2-hydroxy-2-methylpropyl)-5-(trifluoromethyl)picolinamide, relative to 2 μM 3-(6-(1-(2,2-difluorobenzo[d][1,3]dioxol-5-yl)cyclopropane-1-carboxamido)-3-methylpyridin-2-yl)benzoic acid + 0.5 μM N-(2,4-di-tert-butyl-5-hydroxyphenyl)-4-oxo-1,4-dihydroquinoline-3-carboxamide
From the text: Measurement of delF508-CFTR Functional Activity in Primary Human Bronchial Epithelial Cells (HBECs) Using Multi-Transepithelial Clamp Circuit (MTECC-24) Assay
This assay measures the functional activity of the CFTR channel (Chloride ion transport) in patient derived primary human bronchial epithelial cells with forskolin activation and in the presence of the CFTR corrector/potentiator combination.
Primary human delF508-CFTR bronchial epithelial cells were and cultured according to previously established methods (Neuberger, T. et, al., Methods in Molecular Biology, 2011, 741, pp 39-54). Briefly, before thawing the HBEC cells, T25 flasks were coated with 2 mL of 3T3 conditioned media (MTI-GlobalStem, Cat #GSM9100) for at least 12 hours in 37° C. CO2 incubator. 1.7×10^5 cells were seeded into one T25 flask with 5 mL of HBE growth media (BEBM with supplements (Lonza, Cat #CC-3170) with 10 nM of retinoic acid (Sigma, Cat #R-2625) and 1% of PSA (Hyclone, Cat #SV30079.01). Media was changed every day till the cells were 100% confluent. Cells were seeded into T75 flasks (pre-coated with 5 mL of 3T3 conditioned media for more than 12 hrs) at 4.95×10^5 cells/T75 flask in 15 mL of HBE growth media. Flasks were fed everyday with fresh HBE growth media until the cells were confluent. 24-well transwell plates (Corning, Cat #3378) were coated with 3T3 conditioned media (70 μL on top of the filter, 350 μL to the bottom of the well) overnight in the 37° C. CO2 incubator. Cells were seeded in the pre-coated 24-well transwell plates at 1.7×10^5 cell/well with 700 μL of growth media at the bottom of the well and 200 μL of growth media at the top of the filter. After 24 hrs, cells were switched into HBE differentiation media ((DMEM/F12 (Gibco, Cat #11330-032) supplement with 2% Ultroser G (Pall, Cat #15950-017), 2% of Fetal Clone II (Hyclone, Cat #SH30066.03), 0.25% Bovine Brain Extract (Lonza, Cat #CC-4098), 1% of PSA, 2.5 μg/mL of Insulin (Sigma, Cat #19278), 20 nM of Hydrocortisone (Sigma, Cat #H0888), 500 nM of Triiodothyronine (Sigma, Cat #T6397), 2.5 μg/mL of Transferrin (Sigma, Cat #T8158), 250 nM of Ethanolamine (Sigma, Cat #E0135), 1.5 μM of Epinephrine (Sigma, Cat #E4250), 250 nM of Phosphoethanolamine (Sigma, Cat #P0503), 10 nM of retinoic acid)) with 200 μL on top of the filter (apical side) and 700 μL at the bottom of the well (basolateral side). Cells were fed every other day with the differentiation media. After 4 days, cells were exposed to air/liquid interface. Then cells were fed every other day for 4 weeks before fully differentiated.
Cells were washed with 3 mM DTT in PBS at 70 ul/well for 30 min at 37° C. 6 days before the assay. 3 days before the assay, cells were washed again with PBS at 70 ul/well for 30 min at 37° C. Then cells were treated with compound for 24 hrs before the assay.
Following 24 hr treatment with compound, cells were transferred into plates containing 750 ul of assay media on basolateral side and 250 ul on apical side (Assay medium: F-12 Coon's modified, 20 mM HEPES pH7.4 with TRIS Base, No FCS or bicarbonate). The plates wee then transferred to the heated plate compartments (basolateral buffer temperature ˜36.5° C. on the heating block) of the TECC24 system for 45 mins prior to measurements.
Modulators were added sequentially as follows while the TECC24 instrument recorded the equivalent short circuit current (Ieq):
Prior to dilution into assay medium the stocks were as follows: • Benzamil stock: 10 mM in DMSO • Forskolin Stock: 50 mM in DMSO • N-(2,4-di-tert-butyl-5-hydroxyphenyl)-1,4-dihydro-4-oxoquinoline-3-carboxamide: 50 mM in DMSO • (S)-3-amino-6-methoxy-N-(3,3,3-trifluoro-2-hydroxy-2-methylpropyl)-5-(trifluoromethyl)picolinamide: 50 mM stock 100% DMSO • Bumetanide stock: 20 mM in EtOH
The data was normalized using the median signal from wells treated with 0.1% DMSO as a baseline. Curve fitting and EC50 calculations were performed using the following equation: […]

SMILES | EC50 (delF508-CFTR [1]) | EC50 (delF508-CFTR [2]) | MTECC24-CFHBEC Amax % (delF508-CFTR [2]) | Emax (delF508-CFTR [1])
CCCN(CCCC(=O)O)c1cccc(S(=O)(=O)Nc2ccc(C(F)(F)F)c(-c3cc(F)ccc3C)n2)n1 [Compound 131, 4-((6-(N-(6-(5-fluoro-2-methylphenyl)-5-(trifluoromethyl)pyridin-2-yl)sulfamoyl)pyridin-2-yl)(propyl)amino)butanoic Acid] | 1380 nM | 327 nM | 95% | 
Cc1ccccc1-c1nc(NS(=O)(=O)c2cccc(N3CCC[C@H](CCC(=O)O)C3)n2)ccc1C(F)(F)F (single isomer, unassigned) [Compound 62] | 1220 nM | 9 nM | 150% | 
CCCN(CCC(=O)O)c1cccc(S(=O)(=O)Nc2ccc(C(F)(F)F)c(-c3cc(F)ccc3C)n2)n1 [Compound 149, 3-((6-(N-(6-(5-fluoro-2-methylphenyl)-5-(trifluoromethyl)pyridin-2-yl)sulfamoyl)pyridin-2-yl)(propyl)amino)propanoic Acid] | 1490 nM | 88 nM | 133% | 
CC(C)c1ccccc1-c1nc(NS(=O)(=O)c2cccc(N(C)CCCC(=O)O)n2)ccc1C(F)(F)F [Compound 90, 4-((6-(N-(6-(2-isopropylphenyl)-5-(trifluoromethyl)pyridin-2-yl)sulfamoyl)pyridin-2-yl)(methyl)amino)butanoic Acid] | 1350 nM | 5 nM | 135% | 
Cc1ccccc1-c1nc(NS(=O)(=O)c2cccc(N(C)CC3(C(=O)O)CCOCC3)n2)ccc1C(F)(F)F [Compound 133, 4-((methyl(6-(N-(6-(o-tolyl)-5-(trifluoromethyl)pyridin-2-yl)sulfamoyl)pyridin-2-yl)amino)methyl)tetrahydro-2H-pyran-4-carboxylic Acid] | 1920 nM | 901 nM | 108% | 547%
Cc1ccccc1-c1nc(NS(=O)(=O)c2cccc(N(CCCC(=O)O)C(C)C)n2)ccc1C(F)(F)F [Compound 94, 4-(isopropyl(6-(N-(6-(o-tolyl)-5-(trifluoromethyl)pyridin-2-yl)sulfamoyl)pyridin-2-yl)amino)butanoic acid] | 1370 nM | 26 nM | 208% | 
CCN(CCCC(=O)O)c1cccc(S(=O)(=O)Nc2ccc(C(F)(F)F)c(-c3cc(F)ccc3C)n2)n1 [Compound 115, 4-(ethyl(6-(N-(6-(5-fluoro-2-methylphenyl)-5-(trifluoromethyl)pyridin-2-yl)sulfamoyl)pyridin-2-yl)amino)butanoic Acid] | 1510 nM | 70 nM | 146% | 
CCCN(CCCC(=O)O)c1cccc(S(=O)(=O)Nc2ccc(Cl)c(-c3ccccc3C)n2)n1 [Compound 156, 4-((6-(N-(5-chloro-6-(o-tolyl)pyridin-2-yl)sulfamoyl)pyridin-2-yl)(propyl)amino)butanoic Acid] | 920 nM | 230 nM | 158% | 549%
Cc1ccc(F)cc1-c1nc(NS(=O)(=O)c2cccc(N(CCC(=O)O)C(C)C)n2)ccc1C(F)(F)F [Compound 135, 3-((6-(N-(6-(5-fluoro-2-methylphenyl)-5-(trifluoromethyl)pyridin-2-yl)sulfamoyl)pyridin-2-yl)(isopropyl)amino)propanoic Acid] | 1570 nM | 65 nM | 292% | 
CCc1ccc(F)cc1-c1nc(NS(=O)(=O)c2cccc(N(CC)CCCC(=O)O)n2)ccc1C(F)(F)F [Compound 110, 4-(ethyl(6-(N-(6-(2-ethyl-5-fluorophenyl)-5-(trifluoromethyl)pyridin-2-yl)sulfamoyl)pyridin-2-yl)amino)butanoic Acid] | 1030 nM | 6 nM | 182% | 
CCc1ccccc1-c1nc(NS(=O)(=O)c2cccc(N3CCC[C@@H](CC(=O)O)C3)n2)ccc1C(F)(F)F [Compound 85, (S)-2-(1-(6-(N-(6-(2-ethylphenyl)-5-(trifluoromethyl)pyridin-2-yl)sulfamoyl)pyridin-2-yl)piperidin-3-yl)acetic Acid] | 1410 nM | 30 nM | 152% | 
